Experimental findings from paper PMC2567432 (PLoS ONE, 2008) are described below.

The test system of assay [1] is brain astrocytoma 1321N1 cells. The experiment in a line: Cell proliferation WST-1 assay, 1321N1. Format: cell-based. The following applies: 1321N1, 24 h; for anti-proliferative effect compared to curcumin: WST-1. The protocol: (§1) Figure 3 Growth inhibition of different tumor cell lines by polyphenols. […] Following 24-h incubation, cell proliferation was evaluated using the WST-1 assay.
(§2) Tumor cells were cultured in RPMI medium containing 10% fetal calf serum (RPMI-FCS) (PC-3, JIMT-1, MDA-MD 231) or in DMEM-FCS (astrocytoma 1321N1 cells) containing penicillin/streptomycin (100 U penicillin/ml; 100 µg streptomycin/ml) at 37°C/5% CO2. Cytosolic protein extracts of tumor cells were prepared using extraction buffer composed of 25 mM Tris, 2 mM EDTA, 10% Glycerol, 1% Triton ×100, 2 mM DTT, 1mM PMSF, pH. 7.0 containing 0.3% protease inhibitor cocktail. Protein content was determined according to Bradford. Specific activity of enzymes analyzed in cell extracts was expressed as U/mg protein.
(§3) Cell proliferation/vitality of tumor cells (96-well plates; 5000 cells/well) and primary human hepatocytes (24-well plates; 0.25×10^6 cells/well) was assayed using the WST-1 assay according to manufacturer's instructions. Trypan blue exclusion was performed by staining cells with 0.4% aqueous trypan blue solution according to the manufacturer's instructions.
On the technique in general: Tetrazolium dyes change colour on reduction, which living cells bring about.

For assay [2], the system named is breast cancer JIMT-1 cells. The experiment in a line: Cell proliferation WST-1 assay, JIMT-1. Format: cell-based, human. The following applies: JIMT-1, 24 h, WST-1, increasing concentrations. How it is done: as §1, §2, §3
For a further assay, the system named is astrocytoma 1321N1 cells. The experiment in a line: Cellular ATP content (CellTiter-Glo), 1321N1. It counts as cell-based. The following applies: 1321N1, 6 h; curcumin 0–100 µM, MGO 0–1000 µM. How it is done: (§4) Cellular ATP content was determined using the CellTiter-Glo® Luminescent Cell Viability Assay. Data represent the mean±S.D. of independent experiments (n = 12).
(§5) Cell ATP content was determined by means of the CellTiter-Glo® Luminescent Cell Viability Assay according to the manufacturer's instructions (Promega, Madison, USA). […] After 6-h incubation, cells were mixed with test reagents and luminescence was read according to the manufacturer's instructions. A standard curve was prepared from ATP (1 µM to 10 nM) in medium.

The next assay has as its system JIMT-1 cells. As to the kind of experiment: Cellular ATP content (CellTiter-Glo), JIMT-1. It counts as cell-based, human. The following applies: JIMT-1, 6 h; curcumin 0–100 µM, MGO 0–1000 µM. How it is done: as §4, §5
A general note: Cellular ATP, detected with luciferase, serves as a proxy for viable cell number.

The target in the next assay is T1, glyoxalase 1 (Glo1) (Homo sapiens, UniProt Q04760).
T1 construct: Glo1 was purified from human erythrocytes as described earlier; from tissue; host or cells: human erythrocytes
T1 sequence (Q04760 2-184 limits assumed): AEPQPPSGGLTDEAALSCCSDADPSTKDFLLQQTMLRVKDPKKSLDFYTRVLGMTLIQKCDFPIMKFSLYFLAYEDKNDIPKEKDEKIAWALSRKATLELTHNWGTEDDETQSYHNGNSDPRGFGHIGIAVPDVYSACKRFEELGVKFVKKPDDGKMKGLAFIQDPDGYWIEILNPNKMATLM
As to the kind of experiment: Inhibition of purified glyoxalase 1 activity (Dixon plot). It counts as biochemical. The following applies: purified Glo1 70 mU, substrates MGO and GSH, Dixon plot. How it is done: Purified Glo1 (70 mU) was incubated with increasing concentrations of different polyphenols at three substrate concentrations; and enzyme activity was recorded (n = 3). The inhibitor concentration was plotted vs. the reciprocal of enzyme activity (1/v) in Dixon plots.
Glo1 was purified from human erythrocytes as described earlier. Briefly, erythrocytes were treated with butanol/chloroform to denature hemoglobin followed by acetone and ammonium sulphate fractionation.
The determination of Glo1 (E.C.4.4.1.5) activity has been described previously. […] The inhibition constant, Ki value of the inhibitors was evaluated by Dixon plot showing the reciprocal of enzyme velocity against the inhibitor concentration at variable concentrations of the substrate. Human Glo2 (E.C.3.1.2.6) was measured using the substrate S-lactoylglutathione as described earlier.
A goodness-of-fit criterion (Akaike's information criterion, AIC) was used for falsification of incompatible inhibition models. […] Spearman's rank correlation test was applied to evaluate the correlation between the IC50 values of pro-inflammatory cytokine release and the Ki-values of various polyphenols. Data were presented as means±S.D. of at least three independent experiments. […] In all other tests, significance has been considered at values of p<0.05.

In assay [3] the test system is IL-1β release from LPS-stimulated blood cells. As to the kind of experiment: Whole blood assay, LPS-induced IL-1β release (cytometric bead array). The following applies: Homo sapiens; heparinized whole blood, LPS 10 ng/ml, 6 h, 37°C. It counts as cell-based. The protocol: Figure 2 Effect of polyphenols on IL-1β release from LPS-stimulated blood cells. Heparinized whole blood was stimulated by LPS in the absence or presence of polyphenols at increasing concentrations and incubated for 6 h at 37°C with 5% CO2. (A) Released IL-1β as measured in cell supernatants. Samples without additives but LPS were set at 100%. (B) The calculated […] values of the respective polyphenols. Data represent mean±S.D. of independent experiments (n = 6).
Whole blood assay was performed as previously described. Accordingly, LPS (10 ng/ml), test substances and 200 µl heparinized human blood of healthy donors, obtained from the blood bank of the University of Leipzig, were co-incubated with serum-free medium (RPMI-SF, 1 ml final volume) in 24-well culture plates for 6 h at 37°C with 5% CO2. Samples were removed, centrifuged at 2000×g for 10 min and supernatants were stored at −20°C until assaying for inflammatory cytokines.
Assessment of cytokine levels in supernatants of human blood cell cultures was accomplished using Cytometric Bead Array (CBA™, BD Biosciences, San Jose, U.S.A). The procedure was carried out according to the manufacturer's instruction. Fluorescence measurement and analysis were performed using a FACSCalibur and the CellQuest software (BD Biosciences).

What is called Ki is a measure of affinity in units of concentration, obtained from inhibition or displacement. Low readings indicate tighter binding, high ones weaker binding. For orientation: IC50 means the concentration that gives 50% inhibition. A high value points to a need for much substance.

On to `CC(=O)C=O` [MGO, methylglyoxal, reference compound], for which the “effect on cell proliferation” value was “anti-proliferative properties” in assay [1] (WST-1, increasing concentrations) and “anti-proliferative properties” in assay [2]. The “cellular ATP content” value with astrocytoma 1321N1 cells and with JIMT-1 cells was “comparable effects” in each case.

For `O=c1c(O)c(-c2ccc(O)cc2)oc2cc(O)cc(O)c12` [kaempferol], the Ki at glyoxalase 1 (Glo1) was 21 ± 3.8 µM. The IC50 in assay [3] was 34.6 µM.

At glyoxalase 1 (Glo1), `O=c1cc(-c2ccc(O)c(O)c2)oc2cc(O)cc(O)c12` [luteolin] showed an inhibitory constant (Ki) of 35 ± 6.3 µM. In assay [3], this compound displayed an IC50 of 68 µM.

Regarding `O=c1c(O)c(-c2cc(O)c(O)c(O)c2)oc2cc(O)cc(O)c12` [myricetin], the “anti-proliferative effect compared to curcumin” value in assay [1] is listed as “less anti-proliferative”.

`O=c1c(O)c(-c2ccc(O)c(O)c2)oc2cc(O)cc(O)c12` [quercetin] showed an IC50 in assay [3] of 20 µM. Besides, in assay [1], the “anti-proliferative effect compared to curcumin” value is recorded as “less anti-proliferative”.

`C[C@@H]1O[C@@H](OC[C@H]2O[C@@H](Oc3c(-c4ccc(O)c(O)c4)oc4cc(O)cc(O)c4c3=O)[C@H](O)[C@@H](O)[C@@H]2O)[C@H](O)[C@H](O)[C@H]1O` [rutin]: on glyoxalase 1 (Glo1), affinity was put at a Ki of 140 ± 15 µM.
